Reference: ChEMBL document CHEMBL5678816, “A Next-Generation TRK Kinase Inhibitor Overcomes Acquired Resistance to Prior TRK Kinase Inhibition in Patients with TRK Fusion-Positive Solid Tumors” (Cancer Discov, 2017)
pIC50: −log10 of the molar value. Active and inactive are the calls of the source. The calls are words filed in the database; no cut-off is given here.

Columns and labels:
[1] = system: NIH3T3; test: In vivo inhibition of […] in nu/nu NCr mouse implanted with mouse NIH3T3 cells harboring extracellular domain deleted […] assessed as reduction in […] phosphorylation at 10 to 100 mg/kg, po administered twice daily for 3 days and measured after 2 hrs post last dose by ELISA; assay type: functional, organism-based; settings: dose 10-100 mg/kg, time 3.0 day
[2] = system: HT-29; test: Inhibition of cell proliferation in human HT-29 cells upto 10 umol/L incubated for 72 hrs by DAPI staining based analysis; assay type: functional; settings: dose <= 10.0 µmol/L
[3] = target: Receptor tyrosine-protein kinase erbB-4 (Homo sapiens) (UniProt Q15303); test: Inhibition of ErbB4 (unknown origin) at 1 uM in presence of ATP relative to control; values are per cent of control
[4] = system: BFTC-905; test: Inhibition of cell proliferation in human BFTC-905 cells upto 10 umol/L incubated for 72 hrs by DAPI staining based analysis; assay type: functional; settings: dose <= 10.0 µmol/L
[5] = target: Serine/threonine-protein kinase PLK2 (Homo sapiens) (UniProt Q9NYY3); test: Inhibition of Plk2 (unknown origin) at 1 uM in presence of ATP relative to control; values are per cent of control
[6] = target: Tyrosine-protein kinase Fes/Fps (Homo sapiens) (UniProt P07332); test: Inhibition of Fes (unknown origin) at 1 uM in presence of ATP relative to control; values are per cent of control
[7] = target: Tyrosine-protein kinase Fyn (Homo sapiens) (UniProt P06241); test: Inhibition of Fyn (unknown origin) at 1 uM in presence of ATP relative to control; values are per cent of control
[8] = system: SK-N-FI; test: Inhibition of cell proliferation in human SK-N-FI cells upto 10 umol/L incubated for 72 hrs by DAPI staining based analysis; assay type: functional; settings: dose <= 10.0 µmol/L
[9] = system: D283 Med; test: Inhibition of cell proliferation in human D283 Med cells upto 10 umol/L incubated for 72 hrs by DAPI staining based analysis; assay type: functional; settings: dose <= 10.0 µmol/L
[10] = target: Myotonin-protein kinase (Homo sapiens) (UniProt Q09013); test: Inhibition of DMPK (unknown origin) at 1 uM in presence of ATP relative to control; values are per cent of control
[11] = system: AU565; test: Inhibition of cell proliferation in human AU565 cells upto 10 umol/L incubated for 72 hrs by DAPI staining based analysis; assay type: functional; settings: dose <= 10.0 µmol/L
[12] = system: SK-MEL-28; test: Inhibition of cell proliferation in human SK-MEL-28 cells upto 10 umol/L incubated for 72 hrs by DAPI staining based analysis; assay type: functional; settings: dose <= 10.0 µmol/L
[13] = target: Serine/threonine-protein kinase Sgk3 (Homo sapiens) (UniProt Q96BR1); test: Inhibition of SGK3 (unknown origin) at 1 uM in presence of ATP relative to control; values are per cent of control
[14] = Clearance in rat at 1 mg/kg, iv administered as 20% hydroxypropyl-beta-cyclodextrin formulation by LC-MS analysis; assay type: ADME, organism-based; settings: in vivo
[15] = system: SCC-4; test: Inhibition of cell proliferation in human SCC-4 cells upto 10 umol/L incubated for 72 hrs by DAPI staining based analysis; assay type: functional; settings: dose <= 10.0 µmol/L
[16] = target: Serine/threonine-protein kinase VRK2 (Homo sapiens) (UniProt Q86Y07); test: Inhibition of VRK2 (unknown origin) at 1 uM in presence of ATP relative to control; values are per cent of control
[17] = target: Epidermal growth factor receptor (Homo sapiens) (UniProt P00533); test: Inhibition of EGFR (unknown origin) at 1 uM in presence of ATP relative to control; values are per cent of control
[18] = Inhibition of N-terminal 6His-tagged TRKC G623R mutant (506 to 829 residues) (unknown origin) expressed in Escherichia coli incubated for 60 mins by [gamma-33P]-ATP based TopCount NXT liquid scintillation assay; parameters: species or system Homo sapiens
[19] = target: Tyrosine-protein kinase Mer (Homo sapiens) (UniProt Q12866); test: Inhibition of Mer (unknown origin) at 1 uM in presence of ATP relative to control; values are per cent of control
[20] = target: Mast/stem cell growth factor receptor Kit (Homo sapiens) (UniProt P10721); test: Inhibition of KIT (unknown origin) at 1 uM in presence of ATP relative to control; values are per cent of control
[21] = system: SK-N-DZ; test: Inhibition of cell proliferation in human SK-N-DZ cells upto 10 umol/L incubated for 72 hrs by DAPI staining based analysis; assay type: functional; settings: dose <= 10.0 µmol/L
[22] = target: cAMP-dependent protein kinase catalytic subunit alpha (Homo sapiens) (UniProt P17612); test: Inhibition of PKAC-alpha (unknown origin) at 1 uM in presence of ATP relative to control; values are per cent of control
[23] = Inhibition of human extracellular domain deleted TRKA G667S mutant expressed in mouse NIH3T3 cells assessed as reduction in TRKA phosphorylation incubated for 1 hrs by ELISA; assay type: cell-based; settings: NIH3T3, 1 h
[24] = Toxicity in nu/nu NCr mouse implanted with mouse NIH3T3 cells harboring extracellular domain deleted TRKA assessed as body weight loss at 30 to 300 mg/kg, po administered twice daily for 10 days relative to control; assay type: organism-based; settings: in vivo, 240 h, dose 30-300 mg/kg, time 10 day
[25] = system: SU-DHL10; test: Inhibition of cell proliferation in human SU-DHL-10 cells upto 10 umol/L incubated for 72 hrs by DAPI staining based analysis; assay type: functional; settings: dose <= 10.0 µmol/L
[26] = target: Glycogen synthase kinase-3 beta (Homo sapiens) (UniProt P49841); test: Inhibition of GSK3beta (unknown origin) at 1 uM in presence of ATP relative to control; values are per cent of control
[27] = target: Ephrin type-A receptor 2 (Homo sapiens) (UniProt P29317); test: Inhibition of EphA2 (unknown origin) at 1 uM in presence of ATP relative to control; values are per cent of control
[28] = target: Casein kinase II subunit alpha' (Homo sapiens) (UniProt P19784); test: Inhibition of CK2alpha2 (unknown origin) at 1 uM in presence of ATP relative to control; values are per cent of control
[29] = system: SNU-16; test: Inhibition of cell proliferation in human SNU-16 cells upto 10 umol/L incubated for 72 hrs by DAPI staining based analysis; assay type: functional; settings: dose <= 10.0 µmol/L
[30] = system: SCaBER; test: Inhibition of cell proliferation in human SCaBER cells upto 10 umol/L incubated for 72 hrs by DAPI staining based analysis; assay type: functional; settings: dose <= 10.0 µmol/L

Serine/threonine-protein kinase PLK2 (Homo sapiens), sequence (Q9NYY3 whole entry, looked up): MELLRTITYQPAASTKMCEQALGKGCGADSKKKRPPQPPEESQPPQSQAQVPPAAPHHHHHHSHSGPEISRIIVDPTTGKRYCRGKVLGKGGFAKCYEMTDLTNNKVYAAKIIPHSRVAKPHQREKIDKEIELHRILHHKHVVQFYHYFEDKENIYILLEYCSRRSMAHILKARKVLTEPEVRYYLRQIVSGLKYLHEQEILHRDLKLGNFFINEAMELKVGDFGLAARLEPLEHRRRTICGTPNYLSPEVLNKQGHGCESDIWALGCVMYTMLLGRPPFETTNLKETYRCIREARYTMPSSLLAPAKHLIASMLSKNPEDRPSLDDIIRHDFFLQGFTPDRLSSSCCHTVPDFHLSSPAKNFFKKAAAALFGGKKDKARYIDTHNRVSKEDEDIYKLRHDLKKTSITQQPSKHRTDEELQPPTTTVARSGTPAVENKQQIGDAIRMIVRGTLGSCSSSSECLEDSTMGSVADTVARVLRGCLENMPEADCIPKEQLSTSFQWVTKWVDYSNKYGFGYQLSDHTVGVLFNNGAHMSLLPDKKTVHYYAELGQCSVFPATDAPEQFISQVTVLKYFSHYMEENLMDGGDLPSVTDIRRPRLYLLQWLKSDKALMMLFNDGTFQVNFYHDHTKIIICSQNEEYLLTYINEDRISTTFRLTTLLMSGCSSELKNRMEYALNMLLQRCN
Epidermal growth factor receptor (Homo sapiens), sequence (P00533 whole entry, the tested form may be a part): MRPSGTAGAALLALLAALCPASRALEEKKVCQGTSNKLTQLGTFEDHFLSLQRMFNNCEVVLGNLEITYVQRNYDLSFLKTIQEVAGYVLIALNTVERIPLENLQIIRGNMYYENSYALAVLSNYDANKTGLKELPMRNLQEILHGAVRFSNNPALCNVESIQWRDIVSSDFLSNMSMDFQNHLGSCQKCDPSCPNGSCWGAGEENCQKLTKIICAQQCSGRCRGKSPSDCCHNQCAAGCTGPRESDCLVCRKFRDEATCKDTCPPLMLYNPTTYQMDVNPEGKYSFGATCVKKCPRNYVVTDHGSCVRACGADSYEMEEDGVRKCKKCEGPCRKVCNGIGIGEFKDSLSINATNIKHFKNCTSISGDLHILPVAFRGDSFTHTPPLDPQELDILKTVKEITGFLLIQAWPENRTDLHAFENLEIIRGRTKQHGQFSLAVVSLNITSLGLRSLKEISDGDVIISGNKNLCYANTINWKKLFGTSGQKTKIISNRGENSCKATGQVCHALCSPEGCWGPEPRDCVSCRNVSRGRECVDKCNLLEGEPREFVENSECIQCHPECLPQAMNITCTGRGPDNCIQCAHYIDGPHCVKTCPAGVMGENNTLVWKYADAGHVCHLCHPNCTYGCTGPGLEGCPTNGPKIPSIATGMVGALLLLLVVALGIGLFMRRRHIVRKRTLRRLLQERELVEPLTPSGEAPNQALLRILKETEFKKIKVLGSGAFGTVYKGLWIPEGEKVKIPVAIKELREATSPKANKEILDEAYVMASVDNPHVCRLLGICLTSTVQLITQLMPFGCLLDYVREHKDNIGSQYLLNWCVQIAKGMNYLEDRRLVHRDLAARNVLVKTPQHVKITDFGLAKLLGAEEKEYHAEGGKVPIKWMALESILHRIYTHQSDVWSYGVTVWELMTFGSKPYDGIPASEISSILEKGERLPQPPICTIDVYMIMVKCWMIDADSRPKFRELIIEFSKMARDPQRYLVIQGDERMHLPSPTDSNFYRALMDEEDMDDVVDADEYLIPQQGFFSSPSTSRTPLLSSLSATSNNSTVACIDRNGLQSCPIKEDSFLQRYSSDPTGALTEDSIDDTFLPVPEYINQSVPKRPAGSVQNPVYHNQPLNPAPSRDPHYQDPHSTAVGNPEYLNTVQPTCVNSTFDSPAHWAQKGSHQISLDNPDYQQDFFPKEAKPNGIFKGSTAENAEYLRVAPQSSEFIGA
Receptor tyrosine-protein kinase erbB-4 (Homo sapiens), sequence (Q15303 whole entry): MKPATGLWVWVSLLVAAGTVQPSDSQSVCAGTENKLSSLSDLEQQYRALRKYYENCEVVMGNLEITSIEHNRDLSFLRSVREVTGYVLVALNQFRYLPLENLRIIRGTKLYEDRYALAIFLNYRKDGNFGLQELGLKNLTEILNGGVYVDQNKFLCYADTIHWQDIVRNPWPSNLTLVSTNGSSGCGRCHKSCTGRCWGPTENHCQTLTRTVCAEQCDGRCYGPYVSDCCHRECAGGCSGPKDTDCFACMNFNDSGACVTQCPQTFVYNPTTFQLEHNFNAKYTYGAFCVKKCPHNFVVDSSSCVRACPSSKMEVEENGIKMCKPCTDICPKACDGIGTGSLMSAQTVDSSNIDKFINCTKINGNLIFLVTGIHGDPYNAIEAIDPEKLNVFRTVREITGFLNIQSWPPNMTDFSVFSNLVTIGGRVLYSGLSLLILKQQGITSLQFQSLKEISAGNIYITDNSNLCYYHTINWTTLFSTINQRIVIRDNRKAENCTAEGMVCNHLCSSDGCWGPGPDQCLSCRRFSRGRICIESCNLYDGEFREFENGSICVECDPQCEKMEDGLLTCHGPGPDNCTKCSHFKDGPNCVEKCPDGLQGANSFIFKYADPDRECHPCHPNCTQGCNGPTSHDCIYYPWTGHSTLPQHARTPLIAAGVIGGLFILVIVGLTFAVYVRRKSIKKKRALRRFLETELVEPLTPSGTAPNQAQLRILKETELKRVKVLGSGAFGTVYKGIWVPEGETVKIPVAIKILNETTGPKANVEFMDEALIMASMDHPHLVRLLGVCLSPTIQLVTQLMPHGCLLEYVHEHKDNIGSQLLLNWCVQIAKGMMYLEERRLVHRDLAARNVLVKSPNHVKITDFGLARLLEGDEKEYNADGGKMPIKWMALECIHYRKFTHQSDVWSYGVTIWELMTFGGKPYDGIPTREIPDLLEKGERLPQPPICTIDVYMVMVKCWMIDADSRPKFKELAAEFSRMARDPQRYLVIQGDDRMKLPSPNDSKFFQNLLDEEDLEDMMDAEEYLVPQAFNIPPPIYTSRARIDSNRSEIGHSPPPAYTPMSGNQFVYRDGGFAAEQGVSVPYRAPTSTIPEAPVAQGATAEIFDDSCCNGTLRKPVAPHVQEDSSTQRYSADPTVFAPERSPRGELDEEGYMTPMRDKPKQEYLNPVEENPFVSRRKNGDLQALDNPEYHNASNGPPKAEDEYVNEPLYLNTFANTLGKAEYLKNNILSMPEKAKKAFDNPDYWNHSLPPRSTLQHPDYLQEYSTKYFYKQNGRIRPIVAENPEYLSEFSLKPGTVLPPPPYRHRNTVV
Tyrosine-protein kinase Fes/Fps (Homo sapiens), sequence (P07332 whole entry): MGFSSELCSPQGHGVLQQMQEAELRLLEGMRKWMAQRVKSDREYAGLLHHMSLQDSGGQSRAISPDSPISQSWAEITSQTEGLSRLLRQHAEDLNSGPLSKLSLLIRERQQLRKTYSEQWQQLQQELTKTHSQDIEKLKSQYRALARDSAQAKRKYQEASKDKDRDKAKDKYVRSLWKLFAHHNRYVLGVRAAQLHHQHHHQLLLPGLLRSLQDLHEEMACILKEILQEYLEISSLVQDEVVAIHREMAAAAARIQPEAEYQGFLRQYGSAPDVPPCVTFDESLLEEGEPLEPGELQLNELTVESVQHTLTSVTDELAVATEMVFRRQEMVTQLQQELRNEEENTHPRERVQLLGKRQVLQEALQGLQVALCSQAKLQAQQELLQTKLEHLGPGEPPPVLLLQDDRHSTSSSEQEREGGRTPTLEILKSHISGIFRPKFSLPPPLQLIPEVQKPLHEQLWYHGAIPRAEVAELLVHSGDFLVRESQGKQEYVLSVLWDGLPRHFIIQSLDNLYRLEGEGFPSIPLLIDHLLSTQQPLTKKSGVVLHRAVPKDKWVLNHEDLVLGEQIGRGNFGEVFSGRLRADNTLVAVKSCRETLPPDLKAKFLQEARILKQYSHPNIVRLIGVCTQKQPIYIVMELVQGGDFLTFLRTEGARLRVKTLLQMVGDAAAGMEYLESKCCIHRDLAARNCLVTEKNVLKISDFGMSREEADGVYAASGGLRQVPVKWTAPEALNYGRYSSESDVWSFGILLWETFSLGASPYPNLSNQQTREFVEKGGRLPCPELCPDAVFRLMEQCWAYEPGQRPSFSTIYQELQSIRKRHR
Casein kinase II subunit alpha' (Homo sapiens), sequence (P19784 whole entry, looked up): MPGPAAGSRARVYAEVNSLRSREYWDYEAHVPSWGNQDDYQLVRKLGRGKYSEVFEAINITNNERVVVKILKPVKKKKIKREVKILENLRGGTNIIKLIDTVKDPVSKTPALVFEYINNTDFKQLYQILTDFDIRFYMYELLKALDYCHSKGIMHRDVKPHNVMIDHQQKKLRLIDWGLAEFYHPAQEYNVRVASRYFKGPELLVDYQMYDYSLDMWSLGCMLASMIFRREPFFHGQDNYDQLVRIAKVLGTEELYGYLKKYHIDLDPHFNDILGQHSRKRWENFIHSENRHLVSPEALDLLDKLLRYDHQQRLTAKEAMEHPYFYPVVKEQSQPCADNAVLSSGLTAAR
Myotonin-protein kinase (Homo sapiens), sequence (Q09013 whole entry): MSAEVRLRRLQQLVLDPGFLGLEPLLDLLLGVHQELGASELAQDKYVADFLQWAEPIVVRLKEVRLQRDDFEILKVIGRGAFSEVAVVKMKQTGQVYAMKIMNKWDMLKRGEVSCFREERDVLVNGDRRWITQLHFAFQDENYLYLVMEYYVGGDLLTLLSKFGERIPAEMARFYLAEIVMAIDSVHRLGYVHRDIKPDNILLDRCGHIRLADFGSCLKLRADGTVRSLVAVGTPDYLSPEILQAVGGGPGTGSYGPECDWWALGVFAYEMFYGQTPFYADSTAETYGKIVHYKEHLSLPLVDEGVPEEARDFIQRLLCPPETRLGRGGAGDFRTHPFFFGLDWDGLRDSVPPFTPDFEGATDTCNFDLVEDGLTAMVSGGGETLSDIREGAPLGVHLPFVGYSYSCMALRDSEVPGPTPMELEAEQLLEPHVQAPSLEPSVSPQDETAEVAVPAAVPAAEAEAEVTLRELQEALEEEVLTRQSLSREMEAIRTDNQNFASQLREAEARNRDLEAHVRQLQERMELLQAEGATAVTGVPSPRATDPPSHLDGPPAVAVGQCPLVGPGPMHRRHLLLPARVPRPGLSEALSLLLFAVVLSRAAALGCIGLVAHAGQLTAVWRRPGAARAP

C[C@@H]1CCc2ncc(F)cc2[C@H]2CCCN2c2ccn3ncc(c3n2)C(=O)N1 [SELITRECTINIB]
inhibition [1]: Active | inhibition [2]: inactive | residual activity [3]: 116% | inhibition [4]: inactive | residual activity [5]: 95% | residual activity [6]: 99.5% | residual activity [7]: 90.5% | inhibition [8]: inactive | inhibition [9]: inactive | residual activity [10]: 106% | inhibition [11]: inactive | inhibition [12]: inactive | residual activity [13]: 114% | clearance [14]: 5.83 mL/min/kg | inhibition [15]: inactive | residual activity [16]: 98% | residual activity [17]: 103% | pIC50 [18]: 8.64 | residual activity [19]: 117% | residual activity [20]: 100% | inhibition [21]: inactive | residual activity [22]: 109% | pIC50 [23]: 7.60 | Activity [24]: < 5% | inhibition [25]: inactive | residual activity [26]: 124% | residual activity [27]: 79.5% | residual activity [28]: 99% | inhibition [29]: inactive | inhibition [30]: inactive
